This note sets out measurements from US11236047B2 (ASTEX THERAPEUTICS LIMITED, priority 2017, dated 2022).

In the assay the test system is SN40R2 cells. Kind of assay: Protocol B: SN40R2 CellTiter-Glo luminescent cell viability assay. To be noted: for IC50: read-out: SN40R2 IC50 (μM) (Protocol B); for inhibition at 10 µM: read-out: SN40R2 % inhibition at 10. (In general: ATP-based viability assays read luminescence as a measure of living cells.)

Experimental: Protocol B: SJSA-1 and SN40R2 Assays
The CellTiter-Glo® Luminescent Cell Viability Assay is a homogeneous method to determine the number of viable cells in culture based on quantitation of the ATP present, which signals the presence of metabolically active cells. […] 100 μl of CTG reagent (Promega #G7573) was added to all wells and luminescence was measured on the topcount. The EC50 values were determined from a sigmoidal 4 parameter curve fit using XLfit in conjunction with Activity Base (IDBS; Guildford, Surrey, UK).

On to `CO[C@]1(c2ccc(Cl)cc2)c2ccc(C(C)(O)CN3CCN(C)CC3)cc2C(=O)N1Cc1ccc(Cl)cn1` (stereo partly drawn) [Example 255, (3R)-3-(4-chlorophenyl)-2-[(5-chloropyridin-2-yl)methyl]-6-[2-hydroxy-1-(4-methylpiperazin-1-yl)propan-2-yl]-3-methoxy-2,3-dihydro-1H-isoindol-1-one], for which the IC50 was found to be 7.1 µM.
`CO[C@]1(c2ccc(Cl)cc2)c2c(F)cc(C(C)(O)C3CCN(C)CC3)cc2C(=O)N1Cc1ccc(Cl)cn1` (stereo partly drawn) [Example 304, (3R)-3-(4-chlorophenyl)-2-[(5-chloropyridin-2-yl)methyl]-4-fluoro-6-[1-hydroxy-1-(1-methylpiperidin-4-yl)ethyl]-3-methoxy-2,3-dihydro-1H-isoindol-1-one]: the IC50 was 9 µM.
`COc1nc(C)ccc1CN1C(=O)c2cc(C(C)(C)O)cc(F)c2[C@]1(OC)c1ccc(Cl)cc1` [Example 315, (3R)-3-(4-chlorophenyl)-4-fluoro-6-(2-hydroxypropan-2-yl)-3-methoxy-2-[(2-methoxy-6-methylpyridin-3-yl)methyl]-2,3-dihydro-1H-isoindol-1-one]: the IC50 is 13 µM.
On to `CCC(O)(c1cc(F)c2c(c1)C(=O)N(Cc1ccc(C#N)cn1)[C@@]2(O[C@H]1C[C@@H](O)C1)c1ccc(Cl)cc1)c1cnn(C)c1` (stereo partly drawn) [Example 339, 6-{[(1R)-1-(4-chlorophenyl)-7-fluoro-5-[1-hydroxy-1-(1-methyl-1H-pyrazol-4-yl)propyl]-3-oxo-1-[cis-3-hydroxycyclobutoxy]-2,3-dihydro-1H-isoindol-2-yl]methyl}pyridine-3-carbonitrile], for which the inhibition at 10 µM is 3%.
As to `CCC(O)(c1cc(F)c2c(c1)C(=O)N(Cc1ccc(C#N)cn1)[C@@]2(OCCO)c1ccc(Cl)cc1)c1cn(C)cn1` (stereo partly drawn) [Example 364, 6-{[(1R)-1-(4-chlorophenyl)-7-fluoro-5-[1-hydroxy-1-(1-methyl-1H-imidazol-4-yl)propyl]-1-(2-hydroxyethoxy)-3-oxo-2,3-dihydro-1H-isoindol-2-yl]methyl}pyridine-3-carbonitrile], the inhibition at 10 µM was 9%.
For the compound `CCC(O)(c1cc(F)c2c(c1)C(=O)N(Cc1ccc(C#N)cn1)[C@@]2(O[C@H]1CCOC1)c1ccc(Cl)cc1)c1ccn(C)c(=O)c1` (stereo partly drawn) [Example 374, 6-{[(1R)-1-(4-chlorophenyl)-7-fluoro-5-[1-hydroxy-1-(1-methyl-2-oxo-1,2-dihydropyridin-4-yl)propyl]-3-oxo-1-[(3S)-oxolan-3-yloxy]-2,3-dihydro-1H-isoindol-2-yl]methyl}pyridine-3-carbonitrile], the inhibition at 10 µM was determined as 2%.
`CC(O)(c1cc(F)c2c(c1)C(=O)N(Cc1ccc(C#N)cn1)[C@@]2(O[C@H]1CCOC1)c1ccc(Cl)cc1)C1(F)CCOCC1` (stereo partly drawn) [Example 388, 6-{[(1R)-1-(4-chlorophenyl)-7-fluoro-5-[1-(4-fluorooxan-4-yl)-1-hydroxyethyl]-3-oxo-1-[(3S)-oxolan-3-yloxy]-2,3-dihydro-1H-isoindol-2-yl]methyl}pyridine-3-carbonitrile]: the inhibition at 10 µM amounted to 4%.
For the compound `O=C1c2cc(C(O)C3CCS(=O)(=O)CC3)cc(F)c2[C@](OCC2(O)CC2)(c2ccc(Cl)cc2)N1Cc1ncc(Cl)cn1` (stereo partly drawn) [Example 399, 4-{[(1R)-1-(4-chlorophenyl)-2-[(5-chloropyrimidin-2-yl)methyl]-7-fluoro-1-[(1-hydroxycyclopropyl)methoxy]-3-oxo-2,3-dihydro-1H-isoindol-5-yl](hydroxy)methyl}-1λ6-thiane-1,1-dione], the inhibition at 10 µM was found to be 2%.
The same measure, in the same setting: for `CCC(O)(c1cc(F)c2c(c1)C(=O)N(Cc1ccc(C#N)cn1)[C@@]2(O[C@@H]1CCOC1)c1ccc(Cl)cc1)c1cn(C)cn1` (stereo partly drawn) [Example 426, 6-{[(1R)-1-(4-chlorophenyl)-7-fluoro-5-[1-hydroxy-1-(1-methyl-1H-imidazol-4-yl)propyl]-3-oxo-1-[(3R)-oxolan-3-yloxy]-2,3-dihydro-1H-isoindol-2-yl]methyl}pyridine-3-carbonitrile] the value was 4%.
`Cn1cnc(C(O)(c2cc(F)c3c(c2)C(=O)N(Cc2ccc(C#N)cn2)[C@@]3(O[C@H]2CCOC2)c2ccc(Cl)cc2)C2CC2)c1` (stereo partly drawn) [Example 433, 6-{[(1R)-1-(4-chlorophenyl)-5-[cyclopropyl(hydroxy)(1-methyl-1H-imidazol-4-yl)methyl]-7-fluoro-3-oxo-1-[(3S)-oxolan-3-yloxy]-2,3-dihydro-1H-isoindol-2-yl]methyl}pyridine-3-carbonitrile]: the inhibition at 30 µM (read-out: SN40R2 % inhibition at 30) was 20%.
For the compound `Cn1cnc(C(O)(c2cc(F)c3c(c2)C(=O)N(Cc2ccc(C#N)cn2)[C@@]3(O[C@H]2CCOC2)c2ccc(Cl)cc2)C2CC2)c1` (stereo partly drawn) [Example 434, 6-{[(1R)-1-(4-chlorophenyl)-5-[cyclopropyl(hydroxy)(1-methyl-1H-imidazol-4-yl)methyl]-7-fluoro-3-oxo-1-[(3S)-oxolan-3-yloxy]-2,3-dihydro-1H-isoindol-2-yl]methyl}pyridine-3-carbonitrile], the inhibition at 10 µM worked out at 7%.
Consider `CCC(O)(c1cc(F)c2c(c1)C(=O)N(Cc1ccc(C#N)cn1)[C@@]2(O[C@H]1CCOC1)c1ccc(Cl)cc1)C1(F)CCOCC1` (stereo partly drawn) [Example 445, 6-{[(1R)-1-(4-chlorophenyl)-7-fluoro-5-[1-(4-fluorooxan-4-yl)-1-hydroxypropyl]-3-oxo-1-[(3S)-oxolan-3-yloxy]-2,3-dihydro-1H-isoindol-2-yl]methyl}pyridine-3-carbonitrile], for which the inhibition at 10 µM was found to be 16%.
Turning to `CCC(O)(c1cc(F)c2c(c1)C(=O)N(Cc1ncc(Cl)cn1)[C@@]2(OC)c1ccc(Cl)cc1)C1CCNCC1` (stereo partly drawn) [Example 450, (3R)-3-(4-chlorophenyl)-2-[(5-chloropyrimidin-2-yl)methyl]-4-fluoro-6-[1-hydroxy-1-(piperidin-4-yl)propyl]-3-methoxy-2,3-dihydro-1H-isoindol-1-one], the inhibition at 10 µM was 15%.
`CCC(O)(c1cc(F)c2c(c1)C(=O)N(Cc1ncc(C#N)cn1)[C@@]2(OC1CCC(O)C1)c1ccc(Cl)cc1)c1cn(C)cn1` (stereo partly drawn) [Example 461, 2-{[(1R)-1-(4-chlorophenyl)-7-fluoro-5-[1-hydroxy-1-(1-methyl-1H-imidazol-4-yl)propyl]-1-[(trans-3-hydroxycyclopentyl)oxy]-3-oxo-2,3-dihydro-1H-isoindol-2-yl]methyl}pyrimidine-5-carbonitrile]: the inhibition at 10 µM is 6%.
`C=C(CO)CO[C@]1(c2ccc(Cl)cc2)c2c(F)cc(C(O)(CC)c3cn(C)cn3)cc2C(=O)N1Cc1ccc(C#N)cn1` (stereo partly drawn) [Example 466, 6-{[(1R)-1-(4-chlorophenyl)-7-fluoro-5-[1-hydroxy-1-(1-methyl-1H-imidazol-4-yl)propyl]-1-(3-hydroxy-2-methylidenepropoxy)-3-oxo-2,3-dihydro-1H-isoindol-2-yl]methyl}pyridine-3-carbonitrile]: the inhibition at 10 µM was 4%.
As to `CC(O)(c1cc(F)c2c(c1)C(=O)N(Cc1ncc(Cl)cn1)[C@@]2(O[C@H]1CCOC1)c1ccc(Cl)cc1)C1(F)CCOCC1` (stereo partly drawn) [Example 493, (3R)-3-(4-chlorophenyl)-2-[(5-chloropyrimidin-2-yl)methyl]-4-fluoro-6-[1-(4-fluorooxan-4-yl)-1-hydroxyethyl]-3-[(3S)-oxolan-3-yloxy]-2,3-dihydro-1H-isoindol-1-one], the inhibition at 10 µM worked out at 11%.
As for `CC[C@](O)(c1cc(F)c2c(c1)C(=O)N(Cc1ncc(Cl)cn1)[C@@]2(OCCO)c1ccc(Cl)cc1)C1(F)CCOCC1` [Example 502, (3R)-3-(4-chlorophenyl)-2-[(5-chloropyrimidin-2-yl)methyl]-4-fluoro-6-[(1S)-1-(4-fluorooxan-4-yl)-1-hydroxypropyl]-3-(2-hydroxyethoxy)-2,3-dihydro-1H-isoindol-1-one], the inhibition at 10 µM came to 11%.
For the compound `CC[C@@](O)(c1cc(F)c2c(c1)C(=O)N(Cc1ccc(C)nc1C(=O)O)[C@@]2(OC)c1ccc(Cl)cc1)C1(F)CCOCC1` [Example 515, 3-{[(1R)-1-(4-chlorophenyl)-7-fluoro-5-[(1R)-1-(4-fluorooxan-4-yl)-1-hydroxypropyl]-1-methoxy-3-oxo-2,3-dihydro-1H-isoindol-2-yl]methyl}-6-methylpyridine-2-carboxylic acid], the inhibition at 10 µM is 8%.
`[2H]C([2H])(c1ncc(Cl)cn1)N1C(=O)c2cc(C(C)(O)C3(F)CCOCC3)cc(F)c2[C@]1(O[C@H]1CCOC1)c1ccc(Cl)cc1` (stereo partly drawn) [Example 516, (3R)-3-(4-chlorophenyl)-2-[(5-chloropyrimidin-2-yl)dideuteromethyl]-4-fluoro-6-[1-(4-fluorooxan-4-yl)-1-hydroxyethyl]-3-[(3S)-oxolan-3-yloxy]-2,3-dihydro-1H-isoindol-1-one]: the inhibition at 10 µM came to 4%.
On to `CCC(O)(CN(C)C)c1cc(F)c2c(c1)C(=O)N(Cc1ncc(Cl)cn1)[C@@]2(O[C@H]1CCOC1)c1ccc(Cl)cc1` (stereo partly drawn) [Example 528, (3R)-3-(4-chlorophenyl)-2-[(5-chloropyrimidin-2-yl)methyl]-6-[1-(dimethylamino)-2-hydroxybutan-2-yl]-4-fluoro-3-[(3S)-oxolan-3-yloxy]-2,3-dihydro-1H-isoindol-1-one], for which the inhibition at 10 µM came to 10%.
Take `CC[C@@](O)(c1cc(F)c2c(c1)C(=O)N(Cc1ncc(Cl)cn1)[C@@]2(OC)c1ccc(Cl)cc1)C1CCN(C)CC1` [Example 553, (3R)-3-(4-chlorophenyl)-2-[(5-chloropyrimidin-2-yl)methyl]-4-fluoro-6-[(1S)-1-hydroxy-1-(1-methylpiperidin-4-yl)propyl]-3-methoxy-2,3-dihydro-1H-isoindol-1-one]: the inhibition at 10 µM stood at 24%.
Turning to `CC[C@@](O)(c1cc(F)c2c(c1)C(=O)N(Cc1ncc(Cl)cn1)[C@@]2(OCCO)c1ccc(Cl)cc1)C1CCN(C)CC1` [Example 559, (3R)-3-(4-chlorophenyl)-2-[(5-chloropyrimidin-2-yl)methyl]-4-fluoro-6-[(1S)-1-hydroxy-1-(1-methylpiperidin-4-yl)propyl]-3-(2-hydroxyethoxy)-2,3-dihydro-1H-isoindol-1-one], the inhibition at 10 µM stood at 1%.

The term IC50 denotes the midpoint of a concentration-inhibition curve. Broadly, the inhibition is the change of the read-out against control, counted positive when it falls.
